Source: the supplement of paper PMC9663587

Key:
Test in all cases: GRmax, 72 h; higher = less effect;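 also: breast cell lines in 384-well plates, nine doses across a 10^4 range, Dye Drop imaging of viable cells vs DMSO and time-zero plates, GR 0 means no net growth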
ZR751 = system: ZR751
MDAMB436 = system: MDAMB436
HCC1187 = system: HCC1187
EFM19 = system: EFM19
MCF10A = system: MCF10A
HCC1569 = system: HCC1569
BT549 = system: BT549
AU565 = system: AU565
UACC893 = system: UACC893
MDAMB330 = system: MDAMB330
UACC812 = system: UACC812
MDAMB415 = system: MDAMB415
HTERT_HME1 = system: HTERT_HME1
SUM44PE = system: SUM44PE
BT20 = system: BT20

SMILES	GRmax, 72 h (ZR751) [GR]	GRmax, 72 h (MDAMB436) [GR]	GRmax, 72 h (HCC1187) [GR]	GRmax, 72 h (EFM19) [GR]	GRmax, 72 h (MCF10A) [GR]	GRmax, 72 h (HCC1569) [GR]	GRmax, 72 h (BT549) [GR]	GRmax, 72 h (AU565) [GR]	GRmax, 72 h (UACC893) [GR]	GRmax, 72 h (MDAMB330) [GR]	GRmax, 72 h (UACC812) [GR]	GRmax, 72 h (MDAMB415) [GR]	GRmax, 72 h (HTERT_HME1) [GR]	GRmax, 72 h (SUM44PE) [GR]	GRmax, 72 h (BT20) [GR]	GRmax, 72 h (MDAMB436; main component drawn) [GR]	GRmax, 72 h (MCF10A; main component drawn) [GR]	GRmax, 72 h (BT549; main component drawn) [GR]	GRmax, 72 h (HTERT_HME1; main component drawn) [GR]	GRmax, 72 h (BT20; main component drawn) [GR]
CNC(=O)c1cccc(-c2ccc3c(N4CCOC[C@@H]4C)nc(N4CCOC[C@@H]4C)nc3n2)c1 [AZD2014] (max 10 µM)	-0.0477	0.519	0.227	-0.0465	0.183	0.0746	0.089	-0.0212	-0.164	-0.733	-0.585	-0.138	0.143	-0.315	0.151	–	–	–	–	–
NC1(C(=O)N[C@@H](CCO)c2ccc(Cl)cc2)CCN(c2nc[nH]c3nccc2-3)CC1 [AZD5363] (max 10 µM)	0.686	0.728	0.426	0.23	0.805	0.0764	0.557	0.373	-0.798	-0.643	0.485	-0.529	0.564	-0.152	0.229	–	–	–	–	–
C[C@@H]1COCCN1c1cc(C2([S@](C)(=N)=O)CC2)nc(-c2cc[nH]c3nccc2-3)n1 [AZD6738] (max 10 µM)	0.598	0.363	-0.332	0.845	0.442	-0.0623	-0.099	0.312	0.429	0.12	0.305	0.522	0.287	-0.206	0.187	–	–	–	–	–
NC(=O)Nc1cc(-c2cccc(F)c2)sc1C(=O)N[C@H]1CCCNC1 [AZD7762] (max 10 µM)	-0.0705	-0.281	-0.691	-0.149	-0.18	-0.411	-0.482	-0.597	-0.308	-0.607	-0.8	-0.481	-0.478	-0.704	-0.578	–	–	–	–	–
Cc1nc(NC(=O)N2CCC[C@H]2C(N)=O)sc1-c1ccnc(C(C)(C)C(F)(F)F)c1 [Alpelisib/BYL719] (max 10 µM)	0.577	0.725	0.608	-0.151	0.579	0.369	0.684	-0.472	-0.757	-0.555	-0.0521	0.613	0.307	-0.341	-0.118	–	–	–	–	–
CN(C)C/C=C/C(=O)Nc1ccc(O[C@@H]2CCC[C@@H](Nc3ncc(Cl)c(-c4c[nH]c5ccccc45)n3)C2)cc1 [BSJ-01-175] (max 10 µM)	-0.346	-0.598	-0.827	-0.322	-0.566	-0.762	-0.593	-0.777	-0.904	-0.971	-0.92	-0.491	-0.28	-0.873	-0.669	–	–	–	–	–
CC(=O)c1c(C)c2cnc(Nc3ccc(N4CCN(CCOCCOCCOCCNC(=O)COc5cccc6c5C(=O)N(C5CCC(=O)NC5=O)C6=O)CC4)cn3)nc2n(C2CCCC2)c1=O (stereo not given) [BSJ-03-123] (max 10 µM)	0.245	-0.0126	-0.518	0.156	-0.113	-0.03	0.0183	-0.386	0.289	-0.0919	-0.312	0.149	-0.153	0.289	-0.005	–	–	–	–	–
CC(C)Nc1cc(-c2c[nH]c(C(=O)N[C@H](CO)c3cccc(Cl)c3)c2)c(Cl)cn1 [BVD523] (max 10 µM)	0.554	0.649	0.649	0.798	0.185	0.568	0.545	0.521	0.274	0.356	0.176	0.533	0.001	-0.0062	0.463	–	–	–	–	–
Cc1c(N)nc([C@H](CC(N)=O)NC[C@H](N)C(N)=O)nc1C(=O)N[C@H](C(=O)N[C@H](C)[C@@H](O)[C@H](C)C(=O)N[C@H](C(=O)NCCc1nc(-c2nc(C(=O)NCCC[S+](C)C)cs2)cs1)[C@@H](C)O)[C@@H](OC1OC(CO)C(O)C(O)C1OC1OC(CO)C(O)C(OC(N)=O)C1O)c1cnc[nH]1 (stereo not given in full) [Bleomycin] (max 10 µM)	–	–	–	–	–	–	–	–	–	–	–	–	–	–	–	-0.12	0.0378	-0.0141	-0.111	-0.129
Nc1cc(C(F)(F)F)c(-c2cc(N3CCOCC3)nc(N3CCOCC3)n2)cn1 [Buparlisib/NVP-BKM120] (max 10 µM)	-0.226	-0.287	-0.608	-0.356	-0.16	-0.163	-0.272	-0.555	-0.833	-0.858	-0.822	-0.515	-0.241	-0.611	-0.551	–	–	–	–	–
COc1cc2nccc(Oc3ccc(NC(=O)C4(C(=O)Nc5ccc(F)cc5)CC4)cc3)c2cc1OC [Cabozantinib] (max 10 µM)	1.06	0.0862	0.222	0.668	0.843	0.723	0.533	0.312	0.735	0.743	0.298	0.412	-0.105	0.288	-0.203	–	–	–	–	–
COc1cc2c(Oc3ccc4[nH]c(C)cc4c3F)ncnc2cc1OCCCN1CCCC1 [Cediranib/AZD2171] (max 10 µM)	0.672	-0.382	0.349	0.685	0.478	0.875	-0.135	0.887	-0.458	-0.529	-0.575	-0.208	0.0275	0.417	0.221	–	–	–	–	–
Cc1cc(Nc2ncc(Cl)c(Nc3ccccc3S(=O)(=O)C(C)C)n2)c(OC(C)C)cc1C1CCNCC1 [Ceritinib/LDK378] (max 10 µM)	-0.159	-0.697	0.121	-0.258	-0.319	-0.83	-0.228	0.498	0.807	0.152	-0.983	-0.975	-0.356	-0.32	-0.737	–	–	–	–	–
Cc1nc(Nc2ncc(C(=O)Nc3c(C)cccc3Cl)s2)cc(N2CCN(CCO)CC2)n1 [Dasatinib] (max 10 µM)	-0.213	0.653	0.069	-0.0421	-0.0146	-0.059	0.37	0.26	0.706	0.556	-0.714	0.342	-0.0749	0.47	0.283	–	–	–	–	–
COc1cc([C@@H]2c3cc4c(cc3[C@@H](O[C@@H]3O[C@@H]5CO[C@@H](C)O[C@H]5[C@H](O)[C@H]3O)[C@H]3COC(=O)[C@H]23)OCO4)cc(OC)c1O [Etoposide] (max 10 µM)	–	-0.157	–	–	-0.0699	–	-0.195	–	–	–	–	–	-0.384	–	-0.383	–	–	–	–	–
CC[C@@]1(O)C(=O)OCc2c1cc1n(c2=O)Cc2cc3c(CN(C)C)c(O)ccc3nc2-1 [Topotecan] (max 10 µM)	–	-0.14	–	–	-0.2	–	-0.241	–	–	–	–	–	-0.34	–	-0.641	–	–	–	–	–
